Source: patent US8329712B2, “Heterocyclic antiviral compounds” (Roche Palo Alto LLC, priority 2010, dated 2012)

Key:
[1] = target: T1, HCV polymerase (NS5B570n-Con1) (Hepatitis C virus genotype 1b, UniProt Q9WMX2); assay: HCV NS5B RNA polymerase activity assay (incorporation of radiolabeled UTP); type: biochemical, HCV Con1 strain
T1 construct: contains a 21 amino acid deletion at the C-terminus relative to the full-length HCV polymerase; 6-histidine (N); made in house; host or cells: E. coli strain BL21(DE) pLysS, plasmid pET 17b
Description: The enzymatic activity of HCV polymerase (NS5B570n-Con1) was measured as the incorporation of radiolabeled nucleotide monophosphates into acid insoluble RNA products. Unincorporated radiolabeled substrate was removed by filtration and scintillant was added to the washed and dried filter plate containing radiolabeled RNA product. The amount of RNA product generated by NS5B570-Con1 at the end of the reaction was directly proportional to the amount of light emitted by the scintillant.
The N-terminal 6-histidine tagged HCV polymerase, derived from HCV Con1 strain, genotype 1b (NS5B570n-Con1) contains a 21 amino acid deletion at the C-terminus relative to the full-length HCV polymerase and was purified from E. coli strain BL21(DE) pLysS. The construct, containing the coding sequence of HCV NS5B Con1 (GenBank accession number AJ242654) was inserted into the plasmid construct pET 17b, downstream of a T7 promoter expression cassette and transformed into E. coli. A single colony was grown overnight as a starter culture and later used inoculate 10 L of LB media supplemented with 100 μg/mL ampicillin at 37° C. Protein expression was induced by the addition of 0.25 mM isopropyl-β-D-thiogalactopyranoside (IPTG) when optical density at […] of the culture was between 0.6 and 0.8 and cells were harvested after 16 to 18 h at 30° C. NS5B570n-Con1 was purified to homogeneity using a three-step protocol including subsequent column chromatography on Ni-NTA, SP-Sepharose HP and Superdex 75 resins.
Each 50 μL enzymatic reaction contained 20 nM RNA template derived from the complementary sequence of the Internal Ribosome Entry Site (cIRES), 20 nM NS5B570n-Con1 enzyme, 0.5 μCi of tritiated UTP (Perkin Elmer catalog no. TRK-412; specific activity: 30 to 60 Ci/mmol; stock solution concentration from 7.5×10^−5 M to 20.6×10^−6 M), 1 μM each ATP, CTP, and GTP, 40 mM Tris-HCl pH 8.0, 40 mM NaCl, 4 mM DTT (dithiothreitol), 4 mM MgC12, and 5 μL of compound serial diluted in DMSO. Reaction mixtures were assembled in 96-well filter plates (cat #MADVNOB, Millipore Co.) and incubated for 2 h at 30° C. Reactions were stopped by addition of 10% final (v/v) trichloroacetic acid and incubated for 40 min at 4° C. Reactions were filtered, washed with 8 reaction volumes of 10% (v/v) trichloroacetic acetic acid, 4 reaction volumes of 70% (v/v) ethanol, air dried, and 25 μL of scintillant (Microscint 20, Perkin-Elmer) was added to each reaction well.
The amount of light emitted from the scintillant was converted to counts per minute (CPM) on a Topcount® plate reader (Perkin-Elmer, Energy Range: Low, Efficiency Mode Normal, Count Time: 1 min, Background Subtract: none, Cross talk reduction: Off).
Data was analyzed in Excel® (Microsoft) and ActivityBase® (Idbs®). The reaction in the absence of enzyme was used to determine the background signal, which was subtracted from the enzymatic reactions. Positive control reactions were performed in the absence of compound, from which the background corrected activity was set as 100% polymerase activity. All data was expressed as a percentage of the positive control. The compound concentration at which the enzyme-catalyzed rate of RNA synthesis was reduced by 50% (IC50) was calculated by fitting equation (i) to the data where“Y” […]

in vitro = conditions: human
[2] = system: HCV replicon cells (2209-23), genotype 1b replicon in Huh7 cells; assay: HCV replicon assay (Renilla luciferase reporter); type: cell-based, HCV genotype 1b; conditions: Hepatitis C virus, Huh-7, 72 h; 2209-23 cells, three days incubation
HCV = conditions: cited from earlier work

SMILES: CC(C)(C)c1nc(-c2ccc(O)[nH]c2=O)c2ccc(N3CC[C@H](CNS(C)(=O)=O)C3)cc2n1 [Compound I-2]
- IC50 [1]: 3.5 nM
- melting point: 205.8 to 207.9 °C

SMILES: CC(C)(C)c1nc(-n2ccc(=O)[nH]c2=O)c2ccc(-c3ccc(NS(C)(=O)=O)cc3)cc2n1 [Compound I-3, N-{4-[2-tert-Butyl-4-(2,4-dioxo-3,4-dihydro-2H-pyrimidin-1-yl)-quinazolin-7-yl]-phenyl}-methanesulfonamide]
- CC50 at 3 days (in vitro): 44000 nM
- IC50 [1]: < 0.1 nM
- IC50 [2]: 17 nM
- melting point: 186 to 190 °C

SMILES: CC(C)(C)c1nc(-c2ccc(O)[nH]c2=O)c2ccc(-c3ccc(NS(C)(=O)=O)cc3)cc2n1 [Compound I-4, N-{4-[2-tert-Butyl-4-(6-hydroxy-2-oxo-1,2-dihydro-pyridin-3-yl)-quinazolin-7-yl]-phenyl}-methanesulfonamide]
- IC50 [1]: 2.4 nM

SMILES: CC(C)(C)c1nc(-n2ccc(=O)[nH]c2=O)c2ncc(-c3ccc(NS(C)(=O)=O)cc3)cc2n1 [Compound I-5, N-{4-[2-tert-Butyl-4-(2,4-dioxo-3,4-dihydro-2H-pyrimidin-1-yl)-pyrido[3,2-d]pyrimidin-7-yl]-phenyl}-methanesulfonamide]
- IC50 [1]: 5.5 nM

SMILES: Cc1ccc(-c2nc(C(C)(C)C)nc3cc(-c4ccc(NS(C)(=O)=O)cc4)cnc23)c(=O)[nH]1 [Compound I-6]
- IC50 [1]: 9.7 nM

SMILES: NC(=O)c1ncn([C@@H]2O[C@H](CO)[C@@H](O)[C@H]2O)n1 [ribavirin, 1-((2R,3R,4S,5R)-3,4-Dihydroxy-5-hydroxymethyl-tetrahydro-furan-2-yl)-1H-[1,2,4]triazole-3-carboxylic acid amide]
- patients with serum amino transferase levels reduced to normal (HCV; monotherapy): 40%
- effect on serum levels of HCV-RNA (HCV; sole treatment / monotherapy): does not lower serum levels of HCV-RNA
